This note sets out measurements from patent US11998616B2, “Nanoparticles for crossing the blood brain barrier and methods of treatment using the same” (California Institute of Technology, priority 2018, dated 2024).

Data set [1] deals with human BT474-Gluc breast cancer metastatic brain tumors. Put plainly: Antitumor efficacy, brain tumors established by IV injection. The format is in vivo, Rag2−/−; Il2rg−/− mice. The protocol:
(§1) For the IC model, 50,000 BT474-Gluc cells in 2 μL RPMI were intracranially injected into the right cerebral hemisphere of female Rag2−/−; Il2rg−/− mice (Jackson Laboratory) using a stereotaxic apparatus at a rate of 0.1 μL/min. The coordinates for injection were 2 mm posterior, 1.5 mm lateral to bregma, and 2.5 mm depth from bregma. For the IV model, 2 M cells were suspended in 150 μL RPMI and slowly injected into the lateral tail vein of restrained female Rag2−/−; Il2rg−/− mice.
(§2) Tumor Size Monitoring. For ICD and IV models, formation of BT474-Gluc brain metastatic tumors was monitored by MRI every third week until macroscopic tumors were visible (˜0.2 mm^3 in volume). Tumor growth was then monitored weekly by MRI, as for the IC model. Mice were anaesthetized with 1.5-2% (v/v) isoflurane in O2 at a flow rate of 1-1.5 mL/min. T2-weighted 3D RARE images were acquired to assess the tumor volume. The image acquisition parameters were as follows: echo time: 6.1 ms; repetition time: 250 ms; rapid acquisition relaxation enhanced (RARE) factor: 4; number of averages: 4; field of view: 2.0 cm×1.2 cm×0.8 cm; matrix: 200×120×80 (100 m isotropic resolution). Tumor volume was determined manually from the T2 hyperintense tumor regions of the brain using Fiji software. For the IC model, tumor size was also monitored by measuring the activity of secreted Gluc in the blood. […] Blood was transferred to an opaque 96-well plate (Nunc), and Gluc activity measured using the Pierce Gaussia Luciferase Flash Assay Kit, according to the manufacturer's protocol. Photon counts were acquired for 5 s following addition of coelenterazine using a Safire 2 multi-mode plate reader (Tecan). […]
(§3) Treatments. Treatment began when brain metastatic tumors reached ˜2 mm^3, as measured by MRI. […]
Development of Mouse Model that Replicates the Metastasis Process in HER2-Positive Breast Cancer Brain Metastasis Patients. […] HER2-positive BT474-Gluc cells were intravenously (IV) injected into Rag2^−/−; Il2rg^−/− mice, and formation of brain metastases was monitored by MRI. […]

A short description of data set [2]: Gross toxicity observation during efficacy studies. The format is in vivo, Rag2−/−; Il2rg−/− mice. The conditions noted are these: tail vein injection once per week for 4 weeks. The protocol: Treatments. Treatment began when brain metastatic tumors reached ˜2 mm^3, as measured by MRI. Mice in each model were randomized into […] of six mice per group. CPT at a dose of 4 mg/kg (in 20% DMSO, 20% PEG 400, 30% ethanol, and 30% 10 mM pH 3.5 phosphoric acid), Herceptin at 24 mg/kg (in PBS, pH 7.4), TfR-targeted CPT nanoparticles at 4 mg/kg (CPT basis, in PBS, pH 7.4), TfR-targeted Herceptin nanoparticles at 24 mg/kg (Herceptin basis, in PBS, pH 7.4), and TfR-targeted combination CPT/Herceptin nanoparticles at 4 and 24 mg/kg (CPT and Herceptin bases, respectively, in PBS, pH 7.4) were freshly prepared. The different formulations were systemically administered by lateral tail vein injection once per week for 4 weeks. Injections were standardized to 150 μL per 20 g body weight. The control treatment was 0.9% (w/v) saline.

Data set [3] can be described thus: Brain uptake of therapeutics in tumor and healthy brain tissue by HPLC. Particulars: IC-established brain tumors; 24 h after 4 mg/kg dose (CPT basis). The format is in vivo, Rag2−/−; Il2rg−/− mice. The protocol:
Brain Uptake of Therapeutics Differs in Tumor, but not Healthy Tissue between Models. To ascertain whether differences in brain penetration of the therapeutics might explain the discordance in efficacy between brain metastasis models, we systemically administered an additional dose of each treatment at the end of the efficacy study. After 24 h, mice were anesthetized and perfused with PBS to clear any remaining nanoparticles or free drug from the bloodstream. Drug uptake into tumor and healthy brain tissue was quantified by HPLC as previously described.

Data set [4] relates to human BT474-Gluc breast cancer metastatic brain tumors. Put plainly: Antitumor efficacy, brain tumors established by IC injection. The data set is classed as in vivo, Rag2−/−; Il2rg−/− mice. As to the method: as §1
as §2, with “The image acquisition parameters were as follows: echo time: 6.1 ms; repetition time: 250 ms; rapid acquisition relaxation enhanced (RARE) factor: 4; number of averages: 4; field of view: 2.0 cm×1.2 cm×0.8 cm; matrix: 200×120×80 (100 m isotropic resolution).” left out
as §3
Brain Tumors Show Significant Delay in Growth with TfR-Targeted Nanoparticles, but their Response Differs when Established by Different Methods. […] After IC, ICD or IV injection of BT474-Gluc cells, formation of brain metastatic tumors was monitored by MRI. […] Brain tumor volume was measured weekly by MRI. Blood Gluc activity was measured in addition only for the IC model, due to substantial extracranial tumor burden in the ICD and IV models.

The subject of the next data set is BT474-Gluc cells. Description: In vitro sensitivity to CPT of BT474-Gluc cells isolated from brain tumors and parental cells. The format is cell-based, human. Particulars: cells from IC-, ICD-, IV-established tumors and parental cells; dose-response curves.
The subject of data set [5] is human BT474-Gluc breast cancer metastatic brain tumors. Description: Antitumor efficacy, brain tumors established by ICD injection. The data set is classed as in vivo, Rag2−/−; Il2rg−/− mice. The protocol: Intracardiac (ICD) Brain Metastasis Model. All animals were treated according to the NIH guidelines for animal care and use as approved by the Caltech Institutional Animal Care and Use Committee. BT474-Gluc cells, transduced with an expression cassette encoding Gluc and CFP separated by an internal ribosomal entry site using a lentiviral vector, were obtained from Dr. Jain at Harvard University. BT474-Gluc cells were maintained in RPMI 1640 supplemented with 10% (v/v) FBS in a humidified oven at 37° C. with 5% CO2. 100,000 BT474-Gluc cells were suspended in 100 μL of RPMI and slowly injected into the left ventricle of female Rag2−/−; Il2rg−/− mice. Injections were performed blind, midway between the sternal notch and top of xyphoid process, and 13% anatomical left of sternum. Successful insertion into the left cardiac ventricle was confirmed by a bright red pulse of blood in the syringe.
as §2, with “T2-weighted 3D RARE images were acquired to assess the tumor volume. The image acquisition parameters were as follows: echo time: 6.1 ms; repetition time: 250 ms; rapid acquisition relaxation enhanced (RARE) factor: 4; number of averages: 4; field of view: 2.0 cm×1.2 cm×0.8 cm; matrix: 200×120×80 (100 m isotropic resolution).” left out
as §3
Brain Tumors Show Significant Delay in Growth with TfR-Targeted Nanoparticles, but their Response Differs when Established by Different Methods. […] After IC, ICD or IV injection of BT474-Gluc cells, formation of brain metastatic tumors was monitored by MRI. […]

[6] abbreviates: 4 mg/kg (CPT basis) weekly x4, end of the study.

Entries after “also recorded” stand apart in the source; their conditions may differ.

On to `CC[C@@]1(O)C(=O)OCc2c1cc1n(c2=O)Cc2cc3ccccc3nc2-1` [CPT, camptothecin], for which the Mean tumor volume is recorded as 86 mm^3 in data set [1] (setting [6]); 39 mm^3 in data set [4] (4 mg/kg (CPT basis) tail vein once per week for 4 weeks, end of the study); 69 mm^3 in data set [5] (setting [6]). The Median tumor volume is on record as 86 mm^3 in data set [1] (setting [6]), 39 mm^3 in data set [4] (setting [6]) and 71 mm^3 in data set [5] (setting [6]). Further, the “tumor growth inhibition” value in data set [1] (compared to saline) was “no tumor growth inhibition”. In data set [2], the “gross signs of toxicity” value is given as “animals did have reactions to dosing”. For the same compound, the “accumulation in tumor tissue” value in data set [3] is given as “significant accumulation”. Moreover, the “decrease in mean tumor volume compared to saline” value in data set [4] (end of the study) turned out to be 2.6 fold. In addition, in the data set with BT474-Gluc cells, the “sensitivity of cells to CPT in vitro” value is listed as “comparable sensitivities to CPT; also recorded: similarly sensitive to CPT”. Further, the “tumor growth response” value in data set [5] (compared to saline) was “modest response”.
